In ChEMBL document CHEMBL1909046, “DrugMatrix in vitro pharmacology data” one finds IC50 and Ki data, which are given here for 4 compounds.

One assay has as its target Carbonic anhydrase 2 (Homo sapiens, UniProt P00918). The assay can be described thus: DRUGMATRIX: Carbonic Anhydrase II enzyme inhibition (substrate: 4-Nitrophenyl acetate (4-NPA)). It is filed as tissue-based, Erythrocyte. Particulars: erythrocyte; Not Active = under 50% inhibition at 10 µM.
The target of assay [1] is Mitogen-activated protein kinase 1 (Homo sapiens, UniProt P28482). Description: DRUGMATRIX: Protein Serine/Threonine Kinase, ERK2 enzyme inhibition (substrate: Myelin Basic Protein). Particulars: Not Active = under 50% inhibition at 10 µM. On the set-up: species or system Escherichia coli.
Assay [2] has as its target C-C chemokine receptor type 5 (Homo sapiens, UniProt P51681). Format: cell membranes, HEK293, Membrane. Particulars: hek293. Also: in other assays of this panel Not Active means under 50% inhibition at 10 µM.
The target of the next assay is T1, Calcitonin receptor (Homo sapiens, UniProt P30988). Also: in other assays of this panel Not Active means under 50% inhibition at 10 µM.
T1 sequence (P30988 whole entry): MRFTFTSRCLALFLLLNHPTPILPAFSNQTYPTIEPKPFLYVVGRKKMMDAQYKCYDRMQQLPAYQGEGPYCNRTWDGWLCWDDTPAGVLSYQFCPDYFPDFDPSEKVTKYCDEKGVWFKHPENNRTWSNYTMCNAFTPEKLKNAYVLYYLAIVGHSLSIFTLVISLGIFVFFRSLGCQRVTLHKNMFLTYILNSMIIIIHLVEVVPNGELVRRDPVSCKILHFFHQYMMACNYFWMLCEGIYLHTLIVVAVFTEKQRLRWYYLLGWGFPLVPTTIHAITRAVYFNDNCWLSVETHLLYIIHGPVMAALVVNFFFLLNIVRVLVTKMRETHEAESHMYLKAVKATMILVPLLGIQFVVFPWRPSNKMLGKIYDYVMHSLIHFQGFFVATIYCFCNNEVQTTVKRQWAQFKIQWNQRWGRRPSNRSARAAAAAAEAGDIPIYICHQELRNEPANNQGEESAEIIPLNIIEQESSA
Format: cell membranes, Membrane. Particulars: t47d.

A further assay concerns the target T2, Androgen receptor (Rattus norvegicus, UniProt P15207). Also: in other assays of this panel Not Active means under 50% inhibition at 10 µM.
T2 sequence (P15207 whole entry): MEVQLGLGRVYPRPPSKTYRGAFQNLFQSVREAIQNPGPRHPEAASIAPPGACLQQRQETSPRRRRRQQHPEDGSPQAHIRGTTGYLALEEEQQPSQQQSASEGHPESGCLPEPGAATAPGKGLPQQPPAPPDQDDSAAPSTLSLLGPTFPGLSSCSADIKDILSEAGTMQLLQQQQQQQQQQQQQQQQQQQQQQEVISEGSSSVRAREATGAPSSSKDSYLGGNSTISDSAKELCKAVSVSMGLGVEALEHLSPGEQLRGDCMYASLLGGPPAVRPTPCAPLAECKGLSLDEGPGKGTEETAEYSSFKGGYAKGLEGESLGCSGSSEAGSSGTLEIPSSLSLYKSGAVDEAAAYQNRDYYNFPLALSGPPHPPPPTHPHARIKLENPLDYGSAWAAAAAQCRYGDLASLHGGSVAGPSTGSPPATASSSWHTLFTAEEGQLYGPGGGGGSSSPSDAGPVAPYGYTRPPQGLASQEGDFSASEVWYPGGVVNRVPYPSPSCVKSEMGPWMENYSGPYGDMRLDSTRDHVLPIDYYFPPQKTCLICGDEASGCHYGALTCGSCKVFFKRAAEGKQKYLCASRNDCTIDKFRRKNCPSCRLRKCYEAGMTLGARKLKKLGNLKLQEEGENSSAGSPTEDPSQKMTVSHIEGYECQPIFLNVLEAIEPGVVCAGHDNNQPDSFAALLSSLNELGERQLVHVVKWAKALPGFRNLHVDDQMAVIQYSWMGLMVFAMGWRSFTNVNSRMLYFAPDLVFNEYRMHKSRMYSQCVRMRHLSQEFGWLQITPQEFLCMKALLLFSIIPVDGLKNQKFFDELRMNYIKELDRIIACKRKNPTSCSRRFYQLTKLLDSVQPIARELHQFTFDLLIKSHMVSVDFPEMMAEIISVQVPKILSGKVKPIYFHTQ

The target of assay [3] is T3, Muscarinic acetylcholine receptor M4 (Homo sapiens, UniProt P08173). Also: in other assays of this panel Not Active means under 50% inhibition at 10 µM.
T3 sequence (P08173 whole entry): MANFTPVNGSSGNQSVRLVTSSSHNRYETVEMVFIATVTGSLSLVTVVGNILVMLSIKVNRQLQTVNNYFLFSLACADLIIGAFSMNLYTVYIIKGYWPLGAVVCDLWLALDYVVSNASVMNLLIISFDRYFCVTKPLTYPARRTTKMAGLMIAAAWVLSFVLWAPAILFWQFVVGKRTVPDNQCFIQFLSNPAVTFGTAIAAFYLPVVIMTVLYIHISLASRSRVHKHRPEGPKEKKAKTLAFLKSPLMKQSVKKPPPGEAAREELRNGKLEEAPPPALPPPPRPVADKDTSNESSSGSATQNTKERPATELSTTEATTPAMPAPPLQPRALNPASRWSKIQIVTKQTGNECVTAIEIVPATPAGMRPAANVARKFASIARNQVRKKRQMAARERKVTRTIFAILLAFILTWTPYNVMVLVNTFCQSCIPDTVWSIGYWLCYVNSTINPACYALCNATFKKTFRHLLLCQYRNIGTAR
Format: cell membranes, CHO-K1, Membrane. Particulars: cho-k1.

A further assay concerns the target T4, Adenosine receptor A1 (Homo sapiens, UniProt P30542).
T4 sequence (P30542 whole entry): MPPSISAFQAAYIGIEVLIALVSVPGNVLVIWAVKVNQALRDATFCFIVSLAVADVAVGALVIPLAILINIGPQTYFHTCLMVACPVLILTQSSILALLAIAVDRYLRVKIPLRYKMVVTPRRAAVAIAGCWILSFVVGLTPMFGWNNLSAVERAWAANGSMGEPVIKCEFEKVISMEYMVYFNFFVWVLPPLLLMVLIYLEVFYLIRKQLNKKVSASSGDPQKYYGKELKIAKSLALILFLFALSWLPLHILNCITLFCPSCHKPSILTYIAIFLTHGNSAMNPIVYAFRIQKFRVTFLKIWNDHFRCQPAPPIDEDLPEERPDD
It is filed as cell membranes, CHO, Membrane. Particulars: cho.

Chain of C-C chemokine receptor type 5 (P51681 whole entry): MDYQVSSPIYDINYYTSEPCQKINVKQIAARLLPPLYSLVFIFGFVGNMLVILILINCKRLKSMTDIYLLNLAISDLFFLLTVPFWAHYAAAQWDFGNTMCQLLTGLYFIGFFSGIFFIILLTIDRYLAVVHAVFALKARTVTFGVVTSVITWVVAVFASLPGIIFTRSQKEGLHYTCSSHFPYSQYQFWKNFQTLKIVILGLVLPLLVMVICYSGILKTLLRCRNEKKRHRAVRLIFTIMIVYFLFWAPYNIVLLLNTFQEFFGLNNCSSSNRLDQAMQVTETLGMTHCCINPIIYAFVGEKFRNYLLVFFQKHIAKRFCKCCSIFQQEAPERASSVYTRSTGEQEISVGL
Chain of Mitogen-activated protein kinase 1 (P28482 whole entry): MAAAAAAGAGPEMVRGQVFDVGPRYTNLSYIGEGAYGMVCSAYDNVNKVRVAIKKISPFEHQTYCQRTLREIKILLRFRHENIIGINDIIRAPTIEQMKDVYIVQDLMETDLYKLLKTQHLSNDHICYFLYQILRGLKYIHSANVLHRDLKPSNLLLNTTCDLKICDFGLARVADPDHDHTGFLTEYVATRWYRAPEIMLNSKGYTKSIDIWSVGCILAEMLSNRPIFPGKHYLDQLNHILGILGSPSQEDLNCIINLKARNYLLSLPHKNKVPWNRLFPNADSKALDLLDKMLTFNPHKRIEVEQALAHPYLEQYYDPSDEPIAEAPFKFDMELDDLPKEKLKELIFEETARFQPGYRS

With `C=C(Cl)Cl` [1,1-DICHLOROETHENE], the IC50 result (on Carbonic anhydrase 2; in assay [1]; in assay [2]; at Calcitonin receptor; against Androgen receptor; in assay [3]) was “Not Active” in each case. Besides, on Adenosine receptor A1, the half-maximal inhibitory concentration (IC50) – broadly, the concentration that inhibits the measured activity by half – is given as “Not Active”.
With CARBOXYMETHYLCELLULOSE, the IC50 entry was “Not Active” against Carbonic anhydrase 2; 216 nM in assay [1] (read-out: IC50); “Not Active” in assay [2]; “Not Active” at Calcitonin receptor; “Not Active” against Androgen receptor; “Not Active” in assay [3]. Besides, the 50% inhibitory concentration (IC50) result on Adenosine receptor A1 is given as “Not Active”. Besides, the Ki result (at Carbonic anhydrase 2; in assay [2]; at Calcitonin receptor; at Androgen receptor; in assay [3]; at Adenosine receptor A1) was “Not Active” throughout.
Regarding `C=CCN1CC[C@]23c4c5ccc(O)c4O[C@H]2/C(=N/N=C2\CC[C@@]4(O)[C@H]6Cc7ccc(O)c8c7[C@@]4(CCN6CC=C)[C@H]2O8)CC[C@@]3(O)[C@H]1C5` [NALOXONAZINE], the IC50 result (against Carbonic anhydrase 2; in assay [1]; in assay [2]; on Calcitonin receptor; against Androgen receptor; in assay [3]) was “Not Active” throughout. Besides, the half-inhibitory concentration (IC50) entry against Adenosine receptor A1 is on record as “Not Active”.
With `O=C(O)CNCP(=O)(O)O` [GLYPHOSATE], the half-inhibitory concentration (IC50) result (on Carbonic anhydrase 2; in assay [1]; in assay [2]; at Calcitonin receptor; against Androgen receptor; in assay [3]) was “Not Active” in each case. Also, on Adenosine receptor A1, the IC50 result is “Not Active”.
